The text below walks through data of patent publication US8178553B2, “Compounds for the treatment of inflammatory disorders” (Schering Corporation, priority 2006, dated 2012).

Where only a bound is given, the exact number is not on record here.

In the first assay the target is T1, purified catalytic domain of recombinant human TACE (rhTACEc) (Homo sapiens, UniProt P78536, N452Q/S266A).
T1 construct: rhTACEc, Residue 215 to 477 with two mutation (S266A and N452Q) and a 6xHis tail; 6xHis (C); made in house; host or cells: baculovirus/Hi5 insect cells
T1 sequence (P78536 215-477 S266A/N452Q): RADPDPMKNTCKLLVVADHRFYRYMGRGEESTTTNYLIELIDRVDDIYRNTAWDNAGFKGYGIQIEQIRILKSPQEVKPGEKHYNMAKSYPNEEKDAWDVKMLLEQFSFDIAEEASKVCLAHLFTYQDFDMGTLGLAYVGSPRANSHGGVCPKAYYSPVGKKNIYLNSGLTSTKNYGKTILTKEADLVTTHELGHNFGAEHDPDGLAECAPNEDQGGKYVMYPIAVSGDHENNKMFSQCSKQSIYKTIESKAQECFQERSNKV
As to the kind of experiment: TACE kinetic assay, cleavage of internally quenched fluorescent peptide substrate SPDL-3. In kind it is biochemical.
Conditions: not given
The procedure:
TACE activity is determined by a kinetic assay measuring the rate of increase in fluorescent intensity generated by TACE catalyzed cleavage of an internally quenched peptide substrate (SPDL-3). […] It is purified from the baculovirus/Hi5 cells expression system using affinity chromatography. […] MCA is (7-Methoxycoumarin-4-yl)acetyl. Dpa is N-3-(2,4-Dinitrophenyl)-L-2,3-diaminopropionyl.
A 50 μl assay mixture contains 20 mM HEPES, pH 7.3, 5 mM CaCl2, 100 µM ZnCl2, 2% DMSO, 0.04% Methylcellulose, 30 μM SPDL-3, 70 pM rhTACEc and a test compound. RhTACEc is pre-incubated with the testing compound for 90 min. at 25° C. Reaction is started by addition of the substrate. […] Rate of enzymatic reaction is shown as Units per second. Effect of a test compound is shown as % of TACE activity in the absence of the compound.
Broadly, the Ki is a dissociation constant, usually derived from enzyme kinetics or from competition with a known ligand. In the case of `COc1ccc2c(c1)C(=O)N(C[C@@]1(c3ccc(OC(=O)N(C)C)cc3)NC(=O)NC1=O)C2` [Compound 93], the Ki is less than 10 nM.

The same assay, now with this note: Specific TACE inhibitory activity of representative compounds; read-out: Ki.
On to `COc1ccc2c(c1)C(=O)N(C[C@@]1(c3cc4cc(/C=N/O)ccc4o3)NC(=O)NC1=O)C2` [Compound 97], for which the Ki came out at 0.39 nM. On the same count and under the same terms, with `COc1ccc2c(c1)C(=O)N(C[C@@]1(c3ccc(Oc4cccc(C(N)=O)c4)cc3)NC(=O)NC1=O)C2` [Compound 85] the figure was 0.46 nM. Same read-out and setting: with `COc1ccc2c(c1)C(=O)N(C[C@@]1(c3cc4cc(C(N)=O)cnc4o3)NC(=O)NC1=O)C2` [Compound 98] the figure was 0.71 nM; with `COc1ccc2c(c1)C(=O)N(C[C@@]1(c3ccc(-c4cccc(C(N)=O)n4)cc3)NC(=O)NC1=O)C2` [Compound 76], 0.66 nM; with `COc1ccc2c(c1)C(=O)N(C[C@@]1(c3ccc(S(C)(=O)=O)cc3)NC(=O)NC1=O)C2` [Compound 43], 0.26 nM. On the same count and under the same terms, the figure for `COc1ccc2c(c1)C(=O)N(C[C@@]1(c3ccc(-c4ncccc4C#N)cc3)NC(=O)NC1=O)C2` [Compound 66] is 0.09 nM.

The same assay, now with this note: TACE inhibition, Table 1; read-out: Ki Rating.
In the case of `COc1ccc2c(c1)C(=O)N(C[C@@]1(c3ccc(-c4ccccc4C(N)=O)cc3)NC(=O)NC1=O)C2` [Compound 51], the Ki was less than 10 nM. In the case of `COc1ccc2c(c1)C(=O)N(C[C@@]1(c3ccc(-c4ccnc(C(N)=O)c4)cc3)NC(=O)NC1=O)C2` [Compound 23], the Ki was less than 10 nM.

Turning to `COc1ccc2c(c1)C(=O)N(C[C@@]1(c3cc4cc(/C=N/O)ccc4o3)NC(=O)NC1=O)C2` [Compound 97], the Ki was less than 10 nM. Still for that read-out and setting: with `COc1ccc2c(c1)C(=O)N(C[C@@]1(c3ccc(-c4ccc(C(N)=O)nc4)cc3)NC(=O)NC1=O)C2` [Compound 75] the figure was less than 10 nM. Same read-out and setting: the figure for `COC(=O)c1cccc(Oc2ccc([C@]3(CN4Cc5ccc(OC)cc5C4=O)NC(=O)NC3=O)cc2)c1` [Compound 86] is less than 10 nM; for `CNC(=O)c1cccc(Oc2ccc([C@]3(CN4Cc5ccc(OC)cc5C4=O)NC(=O)NC3=O)cc2)c1` [Compound 89] it is less than 10 nM; for `COc1ccc2c(c1)C(=O)N(CC1(CC(=O)N3CCN(C)CC3)NC(=O)NC1=O)C2` (stereo not drawn) [Compound 13] it is 10 to 100 nM. In the case of `COc1ccc2c(c1)C(=O)N(C[C@@]1(c3ccc(C(=O)O)cc3)NC(=O)NC1=O)C2` [Compound 100], the Ki is less than 10 nM. Still for that read-out and setting: the figure for `COc1ccc2c(c1)CN(CC1(c3ccc(C#CCO)cc3)NC(=O)NC1=O)C2=O` (stereo not drawn) [Compound 20] is less than 10 nM; for `CCNC(=O)c1cnc(-c2ccc([C@]3(CN4Cc5ccc(OC)cc5C4=O)NC(=O)NC3=O)cc2)cn1` [Compound 70] it is less than 10 nM. Turning to `COc1ccc2c(c1)C(=O)N(CC1(c3ccc(S(C)(=O)=O)cc3)NC(=O)NC1=O)C2` (stereo not drawn) [Compound 33], the Ki was less than 10 nM. Still for that read-out and setting: the figure for `COC(=O)c1ccc([C@]2(CN3Cc4ccc(OC)cc4C3=O)NC(=O)NC2=O)cc1` [Compound 41] is less than 10 nM; for `COc1ccc2c(c1)C(=O)N(C[C@@]1(c3ccc(Oc4cccc(C(=O)N5CCOCC5)c4)cc3)NC(=O)NC1=O)C2` [Compound 87] it is less than 10 nM; for `COc1ccc2c(c1)C(=O)N(CC1(CC(=O)NC3CCCCC3)NC(=O)NC1=O)C2` (stereo not drawn) [Compound 6] it is 10 to 100 nM. The same measure, in the same setting: the figure for `COc1ccc2c(c1)CN(CC1(c3ccc(C#CCN(C)C)cc3)NC(=O)NC1=O)C2=O` (stereo not drawn) [Compound 18] is less than 10 nM; for `COc1ccc2c(c1)C(=O)N(CC1(c3ccc(C(=O)O)cc3)NC(=O)NC1=O)C2` (stereo not drawn) [Compound 32] it is less than 10 nM. `COc1ccc2c(c1)C(=O)N(C[C@@]1(c3ccc(Oc4cccc(C(N)=O)c4)cc3)NC(=O)NC1=O)C2` [Compound 85]: the Ki is less than 10 nM. Still for that read-out and setting: with `O=C1NC(=O)C(CN2Cc3ncccc3C2=O)(c2ccc(F)cc2)N1` (stereo not drawn) [Compound 27] the figure was greater than 1000 nM; with `COC(=O)c1cc(C)nc(-c2ccc([C@]3(CN4Cc5ccc(OC)cc5C4=O)NC(=O)NC3=O)cc2)c1` [Compound 53], less than 10 nM; with `COc1ccc2c(c1)C(=O)N(CC1(c3ccc(C(=O)N(C)C)cc3)NC(=O)NC1=O)C2` (stereo not drawn) [Compound 34], 10 to 100 nM. The same measure, in the same setting: the figure for `COc1ccc2c(c1)C(=O)N(CC1(CC(=O)N3CCCCC3)NC(=O)NC1=O)C2` (stereo not drawn) [Compound 9] is less than 10 nM. Same read-out and setting: the figure for `COc1ccc2c(c1)C(=O)N(C[C@@]1(c3cc4cc(C(N)=O)cnc4o3)NC(=O)NC1=O)C2` [Compound 98] is less than 10 nM; for `CN(C)CC#Cc1ccc([C@]2(CN3Cc4ccc(O)cc4C3=O)NC(=O)NC2=O)cc1` [Compound 19] it is 10 to 100 nM. In the case of `CNC(=O)c1cccnc1-c1ccc([C@]2(CN3Cc4ccc(OC)cc4C3=O)NC(=O)NC2=O)cc1` [Compound 61], the Ki was less than 10 nM.

On to `NC(=O)Cc1ccc2c(c1)CN(CC1(c3ccc(F)cc3)NC(=O)NC1=O)C2=O` (stereo not drawn) [Compound 37], for which the Ki fell in the range of 10 to 100 nM. The same measure, in the same setting: with `COc1ccc2c(c1)C(=O)N(CC1(CC(=O)N3CCc4ccccc4C3C3CC3)NC(=O)NC1=O)C2` (stereo not drawn) [Compound 15] the figure was less than 10 nM; with `CCOC(=O)CC1(CN2Cc3ccc(OC)cc3C2=O)NC(=O)NC1=O` (stereo not drawn) [Compound 1], 10 to 100 nM. On the same count and under the same terms, the figure for `COc1ccc2c(c1)C(=O)N(C[C@@]1(c3ccc(-c4ncccc4C(=O)N(C)C)cc3)NC(=O)NC1=O)C2` [Compound 63] is less than 10 nM. Take `COc1ccc2c(c1)C(=O)N(C[C@@]1(c3ccc(-c4cnc(N)c(C(=O)NC5CC5)c4)cc3)NC(=O)NC1=O)C2` [Compound 65]: the Ki was less than 10 nM. As for `COc1ccc2c(c1)C(=O)N(C[C@@]1(c3ccc(-c4cccc(C#N)c4)cc3)NC(=O)NC1=O)C2` [Compound 81], the Ki is less than 10 nM. The same measure, in the same setting: with `CCN(CC)C(=O)CC1(CN2Cc3ccc(OC)cc3C2=O)NC(=O)NC1=O` (stereo not drawn) [Compound 8] the figure was 10 to 100 nM; with `COc1ccc2c(c1)C(=O)N(C[C@@]1(c3ccc(-c4cnc(C(=O)NC5CC5)cn4)cc3)NC(=O)NC1=O)C2` [Compound 71], less than 10 nM. Turning to `O=C1NC(=O)C(CN2Cc3ccsc3C2=O)(c2ccc(F)cc2)N1` (stereo not drawn) [Compound 26], the Ki was in the range of 10 to 100 nM. The same measure, in the same setting: the figure for `N#Cc1ccc2c(c1)CN(CC1(c3ccc(F)cc3)NC(=O)NC1=O)C2=O` (stereo not drawn) [Compound 35] is 10 to 100 nM. Same read-out and setting: the figure for `COC(=O)c1cnc(-c2ccc([C@]3(CN4Cc5ccc(OC)cc5C4=O)NC(=O)NC3=O)cc2)cn1` [Compound 54] is less than 10 nM; for `COc1ccc2c(c1)C(=O)N(C[C@@]1(c3ccc(-c4cnc(C(=O)NCC(F)(F)F)cn4)cc3)NC(=O)NC1=O)C2` [Compound 72] it is less than 10 nM.

Consider `COc1ccc2c(c1)C(=O)N(CC1(c3ccc(-c4ccccc4CCN)cc3)NC(=O)NC1=O)C2` (stereo not drawn) [Compound 96], for which the Ki lay within 10 to 100 nM. As to `COc1ccc2c(c1)C(=O)N(C[C@@]1(c3ccc(OCC#CCO)cc3)NC(=O)NC1=O)C2` [Compound 92], the Ki was less than 10 nM. On the same count and under the same terms, with `COc1ccc2c(c1)C(=O)N(CC1(CC(=O)N[C@@H](C)c3ccccc3)NC(=O)NC1=O)C2` (stereo partly drawn) [Compound 4] the figure was 10 to 100 nM.

As to `COc1ccc2c(c1)C(=O)N(C[C@@]1(c3cc4cc(C#N)cnc4o3)NC(=O)NC1=O)C2` [Compound 38], the Ki was less than 10 nM. On the same count and under the same terms, the figure for `COc1ccc2c(c1)C(=O)N(C[C@]1(c3ccc(S(C)(=O)=O)cc3)NC(=O)NC1=O)C2` [Compound 42] is 100 to 1000 nM; for `COc1ccc2c(c1)C(=O)N(C[C@@]1(c3ccc(-c4cccnc4C#N)cc3)NC(=O)NC1=O)C2` [Compound 104] it is less than 10 nM; for `COc1ccc2c(c1)C(=O)N(CC1(CC(=O)Nc3nc4ccccc4s3)NC(=O)NC1=O)C2` (stereo not drawn) [Compound 10] it is less than 10 nM.

Regarding `COc1ccc2c(c1)C(=O)N(C[C@@]1(c3ccc(-c4cccc(C(N)=O)n4)cc3)NC(=O)NC1=O)C2` [Compound 76], the Ki is less than 10 nM.

With `COc1ccc2c(c1)C(=O)N(C[C@@]1(c3ccc(Oc4ccc(C(=O)NCCN(C)C)cc4)cc3)NC(=O)NC1=O)C2` [Compound 83], the Ki is less than 10 nM. In the case of `COc1ccc2c(c1)C(=O)N(C[C@@]1(c3ccc(-c4cncc(C(=O)NC5CC5)c4)cc3)NC(=O)NC1=O)C2` [Compound 56], the Ki was less than 10 nM. Still for that read-out and setting: the figure for `COc1ccc2c(c1)C(=O)N(CC1(CC(=O)N3CCC(Cc4ccccc4)CC3)NC(=O)NC1=O)C2` (stereo not drawn) [Compound 14] is less than 10 nM; for `COC(=O)c1cc(-c2ccc([C@]3(CN4Cc5ccc(OC)cc5C4=O)NC(=O)NC3=O)cc2)cnc1N` [Compound 52] it is less than 10 nM; for `COc1ccc2c(c1)C(=O)N(C[C@@]1(c3cc4cc(C#N)ccc4o3)NC(=O)NC1=O)C2` [Compound 102] it is less than 10 nM. The same measure, in the same setting: the figure for `COC(=O)c1cccnc1-c1ccc([C@]2(CN3Cc4ccc(OC)cc4C3=O)NC(=O)NC2=O)cc1` [Compound 57] is less than 10 nM. Still for that read-out and setting: with `COc1ccc2c(c1)C(=O)N(CC1(CC(=O)N3CCCC3)NC(=O)NC1=O)C2` (stereo not drawn) [Compound 5] the figure was less than 10 nM. Regarding `COc1ccc2c(c1)C(=O)N(C[C@]1(c3ccc(C#Cc4ccccn4)cc3)NC(=O)NC1=O)C2` [Compound 21], the Ki lay in the range of 10 to 100 nM. On to `COc1ccc2c(c1)C(=O)N(C[C@@]1(c3cc4cc(S(C)(=O)=O)ccc4o3)NC(=O)NC1=O)C2` [Compound 44], for which the Ki was less than 10 nM.

Turning to `COc1ccc2c(c1)C(=O)N(C[C@@]1(c3ccc(S(C)(=O)=O)cc3)NC(=O)NC1=O)C2` [Compound 43], the Ki was less than 10 nM.

Regarding `COc1ccc2c(c1)C(=O)N(C[C@@]1(c3ccc(-c4cnn(C)c4C#N)cc3)NC(=O)NC1=O)C2` [Compound 80], the inhibitory constant (Ki) is less than 10 nM.

For the molecule `COc1ccc2c(c1)C(=O)N(C[C@@]1(c3ccc(-c4ccc(S(N)(=O)=O)cc4)cc3)NC(=O)NC1=O)C2` [Compound 105], the Ki was less than 10 nM.

Take `COc1ccc2c(c1)C(=O)N(C[C@@]1(c3ccc(-c4ncccc4C#N)cc3)NC(=O)NC1=O)C2` [Compound 66]: the Ki was less than 10 nM.

Consider `COc1ccc2c(c1)C(=O)N(C[C@@]1(c3ccc(-c4ccc5[nH]nc(C(N)=O)c5c4)cc3)NC(=O)NC1=O)C2` [Compound 78], for which the Ki was less than 10 nM. Still for that read-out and setting: with `COC(=O)c1ccnc(-c2ccc([C@]3(CN4Cc5ccc(OC)cc5C4=O)NC(=O)NC3=O)cc2)c1` [Compound 74] the figure was less than 10 nM.
